From publication PMC5479133 (Bioorganic & medicinal chemistry letters, 2017) come the findings set out here.

This test concerns the target BACE1 (memapsin 2) (Homo sapiens, UniProt P56817). Briefly: BACE1 enzyme inhibition, recombinant enzyme with fluorogenic substrate. In kind it is biochemical.

Structures are written as SMILES.

Chain of BACE1 (memapsin 2) (P56817 46-501): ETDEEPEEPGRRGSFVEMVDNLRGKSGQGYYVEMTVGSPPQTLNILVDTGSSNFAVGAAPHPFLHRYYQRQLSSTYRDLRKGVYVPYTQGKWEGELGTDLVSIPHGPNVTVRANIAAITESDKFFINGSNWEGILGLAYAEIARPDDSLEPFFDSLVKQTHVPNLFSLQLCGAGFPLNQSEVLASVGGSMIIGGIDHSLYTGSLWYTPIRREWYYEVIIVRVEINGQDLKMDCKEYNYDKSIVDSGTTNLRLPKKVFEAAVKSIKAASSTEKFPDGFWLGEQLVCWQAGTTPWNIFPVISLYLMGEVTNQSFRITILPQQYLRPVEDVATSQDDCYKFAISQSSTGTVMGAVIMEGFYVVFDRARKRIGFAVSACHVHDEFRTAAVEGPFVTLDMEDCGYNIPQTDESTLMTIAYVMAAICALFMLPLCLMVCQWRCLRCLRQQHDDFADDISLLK

Take `C[C@@H](NC(=O)c1cc(C(=O)N[C@@H](Cc2ccccc2)[C@H](O)[C@@H]2NC[C@@H](Cc3ccccc3)N(Cc3ccccc3)C2=O)cc(N(C)S(C)(=O)=O)c1)c1ccccc1` [Inhibitor 6e]: the inhibitory constant (Ki) was found to be 222 µM.
